Tests used:
Assay in all cases: KINOMEscan
Assay type in all cases: binding
Conditions in all cases: 2000 nM
[1] = molecular target: T1, ULK3 (Homo sapiens, UniProt Q6PHR2)
T1 construct: DNA label (for qPCR read-out); purchased DiscoveRx (KINOMEscan scanMAX panel)

[2] = molecular target: T2, S6K1 (Homo sapiens, UniProt P23443)
T2 construct: purchased DiscoveRx (KINOMEscan scanMAX panel)

[3] = molecular target: T3, MET(M1250T) (Homo sapiens, UniProt P08581, M1250T)
T3 construct: purchased DiscoveRx (KINOMEscan scanMAX panel, service)

[4] = molecular target: T4, PKMYT1 (Homo sapiens, UniProt Q99640)
T4 construct: DNA label (qPCR read-out); purchased KINOMEscan (DiscoveRx) panel

[5] = molecular target: T5, SRPK3 (Homo sapiens, UniProt Q9UPE1)
T5 construct: purchased KINOMEscan (DiscoveRx)

[6] = molecular target: T6, PRKG1 (Homo sapiens, UniProt Q13976)
T6 construct: purchased DiscoveRx (KINOMEscan scanMAX panel)

[7] = molecular target: T7, CSNK1D (Homo sapiens, UniProt P48730)
T7 construct: DNA label (qPCR read-out); purchased DiscoverX (assay service)

[8] = molecular target: T8, SNARK (Homo sapiens, UniProt Q9H093)
T8 construct: purchased KINOMEscan (DiscoveRx)

[9] = molecular target: T9, DRAK2 (Homo sapiens, UniProt O94768)
T9 construct: DNA label (qPCR read-out); purchased KINOMEscan (DiscoveRx) panel

[10] = molecular target: T10, STK33 (Homo sapiens, UniProt Q9BYT3)
T10 construct: DNA label (for qPCR read-out); purchased DiscoveRx (KINOMEscan scanMAX panel, contract assay)

[11] = molecular target: T11, CHEK1 (Homo sapiens, UniProt O14757)
T11 construct: DNA label (for qPCR read-out); purchased DiscoveRx (KINOMEscan scanMAX service)

[12] = molecular target: T12, DAPK2 (Homo sapiens, UniProt Q9UIK4)
T12 construct: DNA label; purchased DiscoveRx (KINOMEscan scanMAX panel)

[13] = molecular target: T13, SYK (Homo sapiens, UniProt P43405)
T13 construct: DNA label (for qPCR read-out); purchased DiscoveRx (KINOMEscan scanMAX panel, contract assay)

[14] = molecular target: T14, TLK2 (Homo sapiens, UniProt Q86UE8)
T14 construct: DNA label (qPCR read-out); purchased KINOMEscan (DiscoveRx) ScanMAX panel

[15] = molecular target: T15, AKT2 (Homo sapiens, UniProt P31751)
T15 construct: purchased DiscoveRx (KINOMEscan scanMAX panel, service)

[16] = molecular target: T16, TRKC (Homo sapiens, UniProt Q16288)
T16 construct: DNA label (qPCR read-out); purchased KINOMEscan (DiscoveRx) ScanMAX panel

[17] = molecular target: T17, LTK (Homo sapiens, UniProt P29376)
T17 construct: purchased KINOMEscan (DiscoveRx) panel service

[18] = molecular target: T18, PDGFRA (Homo sapiens, UniProt P16234)
T18 construct: DNA label (for qPCR read-out); purchased DiscoveRx (KINOMEscan scanMAX service)

[19] = molecular target: T19, TAOK2 (Homo sapiens, UniProt Q9UL54)
T19 construct: DNA label (for qPCR read-out); purchased DiscoveRx (KINOMEscan scanMAX panel, contract assay)

[20] = molecular target: MARK1 (Homo sapiens, UniProt Q9P0L2)
[21] = molecular target: T20, SLK (Homo sapiens, UniProt Q9H2G2)
T20 construct: purchased KINOMEscan (DiscoveRx)

[22] = molecular target: T21, FLT3(D835V) (Homo sapiens, UniProt P36888, D835V)
T21 construct: purchased DiscoveRx (KINOMEscan scanMAX panel)

[23] = molecular target: T22, IRAK4 (Homo sapiens, UniProt Q9NWZ3)
T22 construct: DNA label (qPCR read-out); purchased KINOMEscan (DiscoveRx) ScanMAX panel

[24] = molecular target: T23, SGK2 (Homo sapiens, UniProt Q9HBY8)
T23 construct: purchased KINOMEscan (DiscoveRx)

[25] = molecular target: T24, FLT3-autoinhibited (Homo sapiens, UniProt P36888)
T24 construct: purchased KINOMEscan (DiscoveRx)

[26] = molecular target: T25, TAOK3 (Homo sapiens, UniProt Q9H2K8)
T25 construct: DNA label (for qPCR read-out); purchased DiscoveRx (KINOMEscan scanMAX panel, contract assay)

[27] = molecular target: T26, PIM1 (Homo sapiens, UniProt P11309)
T26 construct: DNA label (qPCR read-out); purchased KINOMEscan (DiscoveRx) panel

[28] = molecular target: T27, STK36 (Homo sapiens, UniProt Q9NRP7)
T27 construct: DNA label (for qPCR read-out); purchased DiscoveRx (KINOMEscan scanMAX panel, contract assay)

[29] = molecular target: ABL1(H396P)-nonphosphorylated (Homo sapiens, UniProt P00519, H396P)
[30] = molecular target: T28, TGFBR2 (Homo sapiens, UniProt P37173)
T28 construct: DNA label (qPCR read-out); purchased KINOMEscan (DiscoveRx) ScanMAX panel

[31] = molecular target: T29, PRKD2 (Homo sapiens, UniProt Q9BZL6)
T29 construct: purchased DiscoveRx (KINOMEscan scanMAX panel)

[32] = molecular target: T30, PIK3CA(H1047Y) (Homo sapiens, UniProt P42336, H1047Y)
T30 construct: DNA label; purchased DiscoveRx (KINOMEscan scanMAX panel)

[33] = molecular target: T31, STK16 (Homo sapiens, UniProt O75716)
T31 construct: DNA label (for qPCR read-out); purchased DiscoveRx (KINOMEscan scanMAX panel, contract assay)

[34] = molecular target: T32, ACVRL1 (Homo sapiens, UniProt P37023)
T32 construct: purchased DiscoveRx (KINOMEscan scanMAX panel, service)

[35] = molecular target: T33, CDK4-cyclinD1 (Homo sapiens, UniProt P11802)
T33 construct: purchased DiscoverX (KINOMEscan service)

[36] = molecular target: T34, CLK4 (Homo sapiens, UniProt Q9HAZ1)
T34 construct: DNA label (for qPCR read-out); purchased DiscoveRx (KINOMEscan scanMAX service)

[37] = molecular target: T35, NEK3 (Homo sapiens, UniProt P51956)
T35 construct: DNA label (qPCR read-out); purchased KINOMEscan (ScanMAX panel service)

T20 sequence (Q9H2G2 whole entry): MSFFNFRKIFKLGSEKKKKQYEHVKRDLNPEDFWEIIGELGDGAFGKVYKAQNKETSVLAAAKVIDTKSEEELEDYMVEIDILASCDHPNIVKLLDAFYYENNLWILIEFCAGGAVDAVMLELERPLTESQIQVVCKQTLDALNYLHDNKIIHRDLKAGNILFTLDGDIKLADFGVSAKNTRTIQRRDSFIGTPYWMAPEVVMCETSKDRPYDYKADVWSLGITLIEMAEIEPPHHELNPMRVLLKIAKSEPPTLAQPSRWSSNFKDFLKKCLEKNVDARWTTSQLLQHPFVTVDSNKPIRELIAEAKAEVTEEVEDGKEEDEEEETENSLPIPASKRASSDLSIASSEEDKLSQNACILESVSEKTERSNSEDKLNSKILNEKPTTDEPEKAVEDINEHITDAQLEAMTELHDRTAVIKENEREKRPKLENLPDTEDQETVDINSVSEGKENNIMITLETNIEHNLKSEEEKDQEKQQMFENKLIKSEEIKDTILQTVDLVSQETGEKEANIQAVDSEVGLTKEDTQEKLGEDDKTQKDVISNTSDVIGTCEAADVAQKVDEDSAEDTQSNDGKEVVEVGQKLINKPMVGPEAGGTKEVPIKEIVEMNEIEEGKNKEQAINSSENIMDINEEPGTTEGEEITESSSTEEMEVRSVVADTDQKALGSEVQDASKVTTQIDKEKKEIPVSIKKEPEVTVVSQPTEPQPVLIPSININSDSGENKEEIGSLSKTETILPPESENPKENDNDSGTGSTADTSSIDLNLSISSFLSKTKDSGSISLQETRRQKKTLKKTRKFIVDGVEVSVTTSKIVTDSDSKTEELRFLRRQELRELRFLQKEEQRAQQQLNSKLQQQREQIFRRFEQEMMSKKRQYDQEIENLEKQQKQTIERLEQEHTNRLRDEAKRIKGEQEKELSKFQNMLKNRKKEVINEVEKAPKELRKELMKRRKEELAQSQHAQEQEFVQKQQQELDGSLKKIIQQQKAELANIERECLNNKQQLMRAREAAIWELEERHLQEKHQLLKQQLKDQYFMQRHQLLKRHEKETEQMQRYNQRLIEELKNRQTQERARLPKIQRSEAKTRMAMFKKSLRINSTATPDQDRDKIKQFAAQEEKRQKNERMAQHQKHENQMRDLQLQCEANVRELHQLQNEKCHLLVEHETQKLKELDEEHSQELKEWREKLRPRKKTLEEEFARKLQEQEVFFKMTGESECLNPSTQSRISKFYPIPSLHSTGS
T14 sequence (Q86UE8 whole entry): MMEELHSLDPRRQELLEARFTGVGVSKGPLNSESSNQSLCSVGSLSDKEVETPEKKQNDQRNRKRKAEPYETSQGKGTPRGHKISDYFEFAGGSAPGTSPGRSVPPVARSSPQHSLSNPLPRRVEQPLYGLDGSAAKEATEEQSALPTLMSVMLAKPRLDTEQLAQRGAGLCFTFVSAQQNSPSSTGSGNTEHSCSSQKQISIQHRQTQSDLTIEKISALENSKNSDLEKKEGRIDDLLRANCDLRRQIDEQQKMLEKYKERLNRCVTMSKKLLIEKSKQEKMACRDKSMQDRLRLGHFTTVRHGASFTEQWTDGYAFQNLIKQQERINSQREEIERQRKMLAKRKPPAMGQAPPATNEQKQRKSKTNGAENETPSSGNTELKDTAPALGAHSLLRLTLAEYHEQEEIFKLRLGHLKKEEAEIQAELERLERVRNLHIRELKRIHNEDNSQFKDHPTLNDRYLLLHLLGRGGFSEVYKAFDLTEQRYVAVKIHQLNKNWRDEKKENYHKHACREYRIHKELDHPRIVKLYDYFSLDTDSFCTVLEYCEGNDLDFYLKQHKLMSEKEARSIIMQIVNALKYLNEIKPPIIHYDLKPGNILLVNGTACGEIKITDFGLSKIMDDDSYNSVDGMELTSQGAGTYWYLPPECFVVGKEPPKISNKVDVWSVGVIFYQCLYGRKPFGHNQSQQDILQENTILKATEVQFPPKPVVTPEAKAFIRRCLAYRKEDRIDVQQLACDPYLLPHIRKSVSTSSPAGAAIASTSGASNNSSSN
Sequence of MARK1 (Q9P0L2 whole entry): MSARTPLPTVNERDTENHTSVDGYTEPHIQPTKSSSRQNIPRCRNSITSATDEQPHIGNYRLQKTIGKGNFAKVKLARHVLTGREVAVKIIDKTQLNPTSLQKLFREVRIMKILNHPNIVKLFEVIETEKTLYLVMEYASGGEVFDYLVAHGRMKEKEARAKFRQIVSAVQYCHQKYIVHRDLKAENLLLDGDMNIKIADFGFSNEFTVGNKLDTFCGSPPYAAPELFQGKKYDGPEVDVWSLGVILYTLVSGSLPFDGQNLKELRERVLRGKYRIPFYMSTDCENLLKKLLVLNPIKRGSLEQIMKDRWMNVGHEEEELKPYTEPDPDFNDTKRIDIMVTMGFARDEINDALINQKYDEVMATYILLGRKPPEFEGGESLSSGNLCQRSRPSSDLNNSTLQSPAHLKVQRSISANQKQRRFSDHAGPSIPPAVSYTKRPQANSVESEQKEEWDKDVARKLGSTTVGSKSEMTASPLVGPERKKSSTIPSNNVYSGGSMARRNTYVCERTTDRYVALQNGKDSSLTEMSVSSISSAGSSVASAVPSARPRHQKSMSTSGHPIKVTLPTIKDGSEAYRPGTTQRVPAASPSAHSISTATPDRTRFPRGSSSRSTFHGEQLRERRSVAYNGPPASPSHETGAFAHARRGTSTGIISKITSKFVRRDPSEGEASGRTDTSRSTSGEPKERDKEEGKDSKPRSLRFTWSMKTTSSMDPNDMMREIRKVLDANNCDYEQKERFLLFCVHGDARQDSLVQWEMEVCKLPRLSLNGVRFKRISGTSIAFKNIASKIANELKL
T17 sequence (P29376 17-864): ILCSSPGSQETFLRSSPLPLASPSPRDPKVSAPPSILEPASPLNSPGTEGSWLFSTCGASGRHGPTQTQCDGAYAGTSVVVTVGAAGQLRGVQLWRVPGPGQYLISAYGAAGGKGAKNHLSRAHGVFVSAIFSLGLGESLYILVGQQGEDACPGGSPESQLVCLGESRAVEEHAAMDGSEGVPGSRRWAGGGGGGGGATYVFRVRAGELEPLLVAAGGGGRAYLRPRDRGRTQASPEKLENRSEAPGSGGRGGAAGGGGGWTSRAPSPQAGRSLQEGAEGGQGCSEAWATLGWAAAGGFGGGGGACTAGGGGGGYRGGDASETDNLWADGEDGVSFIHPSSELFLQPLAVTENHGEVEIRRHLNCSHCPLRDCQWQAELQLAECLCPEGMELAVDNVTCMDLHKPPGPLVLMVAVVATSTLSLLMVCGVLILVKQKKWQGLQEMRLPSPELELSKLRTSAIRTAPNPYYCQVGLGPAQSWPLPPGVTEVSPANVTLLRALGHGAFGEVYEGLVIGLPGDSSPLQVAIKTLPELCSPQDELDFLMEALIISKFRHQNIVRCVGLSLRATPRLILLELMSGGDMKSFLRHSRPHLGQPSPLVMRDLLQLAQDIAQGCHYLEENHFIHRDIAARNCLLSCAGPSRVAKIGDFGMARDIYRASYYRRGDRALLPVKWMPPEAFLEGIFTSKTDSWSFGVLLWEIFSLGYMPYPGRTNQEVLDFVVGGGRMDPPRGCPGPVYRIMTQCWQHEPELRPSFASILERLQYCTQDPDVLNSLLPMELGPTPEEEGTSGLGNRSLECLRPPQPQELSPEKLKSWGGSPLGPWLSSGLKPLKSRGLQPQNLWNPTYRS
T6 sequence (Q13976 whole entry): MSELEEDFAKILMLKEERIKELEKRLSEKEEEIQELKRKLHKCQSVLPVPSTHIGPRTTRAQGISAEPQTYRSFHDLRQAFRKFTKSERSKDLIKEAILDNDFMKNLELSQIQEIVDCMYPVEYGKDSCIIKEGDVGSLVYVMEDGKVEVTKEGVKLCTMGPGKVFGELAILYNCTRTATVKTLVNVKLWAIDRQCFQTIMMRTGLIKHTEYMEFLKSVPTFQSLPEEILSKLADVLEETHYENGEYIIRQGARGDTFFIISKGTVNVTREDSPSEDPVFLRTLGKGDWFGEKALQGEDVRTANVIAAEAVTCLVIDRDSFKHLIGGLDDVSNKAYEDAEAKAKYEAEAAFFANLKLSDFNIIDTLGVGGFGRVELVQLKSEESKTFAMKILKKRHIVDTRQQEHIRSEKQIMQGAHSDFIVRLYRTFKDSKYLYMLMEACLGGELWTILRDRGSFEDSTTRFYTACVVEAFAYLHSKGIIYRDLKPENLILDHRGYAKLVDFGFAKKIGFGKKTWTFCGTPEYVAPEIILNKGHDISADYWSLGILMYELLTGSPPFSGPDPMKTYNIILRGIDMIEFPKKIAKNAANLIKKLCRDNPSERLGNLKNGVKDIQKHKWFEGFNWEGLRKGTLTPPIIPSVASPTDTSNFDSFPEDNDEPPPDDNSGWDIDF
T12 sequence (Q9UIK4 whole entry): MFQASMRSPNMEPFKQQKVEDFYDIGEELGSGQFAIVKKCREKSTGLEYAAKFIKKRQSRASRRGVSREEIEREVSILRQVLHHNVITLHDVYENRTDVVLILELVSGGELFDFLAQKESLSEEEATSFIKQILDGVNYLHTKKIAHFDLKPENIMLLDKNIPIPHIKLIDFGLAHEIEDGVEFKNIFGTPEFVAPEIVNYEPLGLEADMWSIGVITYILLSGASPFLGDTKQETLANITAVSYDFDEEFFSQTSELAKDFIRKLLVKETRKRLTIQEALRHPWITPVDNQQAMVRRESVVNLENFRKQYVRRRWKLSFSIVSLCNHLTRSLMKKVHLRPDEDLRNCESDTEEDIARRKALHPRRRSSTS
T26 sequence (P11309 whole entry): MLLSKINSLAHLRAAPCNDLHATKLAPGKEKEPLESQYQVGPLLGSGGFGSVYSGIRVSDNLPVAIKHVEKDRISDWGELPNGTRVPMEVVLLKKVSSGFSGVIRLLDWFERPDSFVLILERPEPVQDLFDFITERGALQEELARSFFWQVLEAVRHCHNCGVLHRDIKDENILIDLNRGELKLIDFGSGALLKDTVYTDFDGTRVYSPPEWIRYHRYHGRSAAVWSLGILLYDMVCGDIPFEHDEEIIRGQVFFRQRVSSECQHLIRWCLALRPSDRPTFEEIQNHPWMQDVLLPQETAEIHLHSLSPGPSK

| SMILES | % Ctrl [1] [% Ctrl] | % Ctrl [2] [% Ctrl] | % Ctrl [3] [% Ctrl] | % Ctrl [4] [% Ctrl] | % Ctrl [5] [% Ctrl] | % Ctrl [6] [% Ctrl] | % Ctrl [7] [% Ctrl] | % Ctrl [8] [% Ctrl] | % Ctrl [9] [% Ctrl] | % Ctrl [10] [% Ctrl] | % Ctrl [11] [% Ctrl] | % Ctrl [12] [% Ctrl] | % Ctrl [13] [% Ctrl] | % Ctrl [14] [% Ctrl] | % Ctrl [15] [% Ctrl] | % Ctrl [16] [% Ctrl] | % Ctrl [17] [% Ctrl] | % Ctrl [18] [% Ctrl] | % Ctrl [19] [% Ctrl] | % Ctrl [20] [% Ctrl] | other results |
| --- | --- | --- | --- | --- | --- | --- | --- | --- | --- | --- | --- | --- | --- | --- | --- | --- | --- | --- | --- | --- | --- |
| CN(C)C(=O)c1ccc(N2CCCN(c3ccnc4sc(C(N)=O)c(N)c34)CC2)cc1 [15u, 3-amino-4-(4-(4-(dimethylcarbamoyl)phenyl)-1,4-diazepan-1-yl)thieno[2,3-b]pyridine-2-carboxamide] | 96 | 95 | 100 | 91 | 65 | 88 | 20 | 100 | 100 | 100 | 94 | 75 | 95 | 100 | 86 | 91 | 90 | 70 | 92 | 100 | % Ctrl [21]: 56 % Ctrl; % Ctrl [22]: 33 % Ctrl; % Ctrl [23]: 89 % Ctrl; % Ctrl [24]: 100 % Ctrl; % Ctrl [25]: 72 % Ctrl; % Ctrl [26]: 98 % Ctrl; % Ctrl [27]: 88 % Ctrl; % Ctrl [28]: 100 % Ctrl; % Ctrl [29]: 100 % Ctrl; % Ctrl [30]: 100 % Ctrl; % Ctrl [31]: 56 % Ctrl; % Ctrl [32]: 79 % Ctrl; % Ctrl [33]: 80 % Ctrl; % Ctrl [34]: 99 % Ctrl; % Ctrl [35]: 94 % Ctrl; % Ctrl [36]: 59 % Ctrl; % Ctrl [37]: 100 % Ctrl |
| [2H]C([2H])([2H])N(C(=O)c1ccc(N2CCCN(c3ccnc4sc(C(N)=O)c(N)c34)CC2)cc1)C([2H])([2H])[2H] [15u_D6, 3-amino-4-(4-(4-(bis(methyl-d3)carbamoyl)phenyl)-1,4-diazepan-1-yl)thieno[2,3-b]pyridine-2-carboxamide] | 79 | 89 | 96 | 94 | 96 | 100 | 22 | 78 | 87 | 100 | 100 | 85 | 100 | 97 | 99 | 85 | 77 | 65 | 93 | 100 | % Ctrl [21]: 54 % Ctrl; % Ctrl [22]: 14 % Ctrl; % Ctrl [23]: 78 % Ctrl; % Ctrl [24]: 81 % Ctrl; % Ctrl [25]: 77 % Ctrl; % Ctrl [26]: 73 % Ctrl; % Ctrl [27]: 100 % Ctrl; % Ctrl [28]: 100 % Ctrl; % Ctrl [29]: 76 % Ctrl; % Ctrl [30]: 100 % Ctrl; % Ctrl [31]: 90 % Ctrl; % Ctrl [32]: 100 % Ctrl; % Ctrl [33]: 87 % Ctrl; % Ctrl [34]: 100 % Ctrl; % Ctrl [35]: 96 % Ctrl; % Ctrl [36]: 66 % Ctrl; % Ctrl [37]: 76 % Ctrl |

Source: patent US11572369B2, “Bicyclic pyridine compositions and methods of using the same for cancer therapy” (UNIVERSITY OF SOUTH CAROLINA, priority 2019, dated 2023)
